{"source": "patent US20120035207A1", "about": "“Use of GABAA Receptor Agonists for the Treatment of Hearing, Vestibular and Attention Disorders, Intention Tremor and Restless Leg Syndrome” (priority 2003, published 2012)", "origin": "cited, not measured here", "molecular_target": "T1, a4β3δ receptor (Homo sapiens, UniProt P28472+P48169)", "T1 construct": "host or cells: mouse L(-tk) cells stably expressing the α4β3δ receptor (Brown et al; Adkins et al.)", "T1 sequence (P48169 36-554)": "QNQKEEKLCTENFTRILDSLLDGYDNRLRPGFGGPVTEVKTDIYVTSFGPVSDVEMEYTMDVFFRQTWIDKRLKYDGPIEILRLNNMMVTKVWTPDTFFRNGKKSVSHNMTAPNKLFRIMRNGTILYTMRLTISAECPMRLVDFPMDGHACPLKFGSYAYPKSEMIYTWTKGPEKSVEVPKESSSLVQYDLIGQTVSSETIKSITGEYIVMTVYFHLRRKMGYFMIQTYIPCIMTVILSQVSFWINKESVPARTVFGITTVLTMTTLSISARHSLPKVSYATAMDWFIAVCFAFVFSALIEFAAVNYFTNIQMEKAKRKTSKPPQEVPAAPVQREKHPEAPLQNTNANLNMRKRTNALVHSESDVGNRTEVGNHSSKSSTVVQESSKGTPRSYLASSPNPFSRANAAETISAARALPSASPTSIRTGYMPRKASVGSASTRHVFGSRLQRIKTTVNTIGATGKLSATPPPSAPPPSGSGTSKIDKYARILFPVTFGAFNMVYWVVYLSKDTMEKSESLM", "T1 sequence (P28472 26-473)": "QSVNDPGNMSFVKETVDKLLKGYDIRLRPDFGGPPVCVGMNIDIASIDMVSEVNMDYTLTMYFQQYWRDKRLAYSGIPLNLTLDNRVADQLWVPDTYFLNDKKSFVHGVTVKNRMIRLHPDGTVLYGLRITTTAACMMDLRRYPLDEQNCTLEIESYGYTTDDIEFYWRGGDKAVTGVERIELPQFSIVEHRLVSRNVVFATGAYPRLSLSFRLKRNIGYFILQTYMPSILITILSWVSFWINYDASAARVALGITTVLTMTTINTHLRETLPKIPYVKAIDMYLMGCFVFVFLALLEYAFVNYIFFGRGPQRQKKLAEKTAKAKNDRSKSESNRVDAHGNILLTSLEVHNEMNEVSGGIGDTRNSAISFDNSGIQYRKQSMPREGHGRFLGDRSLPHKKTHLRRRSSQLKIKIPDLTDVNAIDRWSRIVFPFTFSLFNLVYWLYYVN", "T1 sequence (O14764 17-452 partner limits assumed)": "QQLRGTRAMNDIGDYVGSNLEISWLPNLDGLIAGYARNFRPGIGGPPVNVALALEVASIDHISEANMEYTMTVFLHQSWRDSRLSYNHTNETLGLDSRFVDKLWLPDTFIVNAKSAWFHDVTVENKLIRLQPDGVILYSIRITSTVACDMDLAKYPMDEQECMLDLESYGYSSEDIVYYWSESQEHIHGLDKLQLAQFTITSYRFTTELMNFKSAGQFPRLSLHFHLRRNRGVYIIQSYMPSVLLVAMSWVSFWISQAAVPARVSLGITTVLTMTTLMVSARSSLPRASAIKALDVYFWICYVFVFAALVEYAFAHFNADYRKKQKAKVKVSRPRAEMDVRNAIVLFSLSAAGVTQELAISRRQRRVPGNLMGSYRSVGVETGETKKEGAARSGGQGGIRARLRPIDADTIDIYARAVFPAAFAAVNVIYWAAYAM", "conditions": "reported by Brown et al, British J. Pharmacol., 136, 965-74 (2002)"}
{"smiles": "Oc1noc2c1CCNC2", "note": "[Gaboxadol, 4,5,6,7-tetrahydroisoxazolo[5,4-c]pyridin-3-ol]", "values": [{"measurement": "agonist activity at the a4β3δ receptor", "result": "potent agonist"}]}
